In one assay the target is T1, AKT1 E17K (Homo sapiens, UniProt P31749, E17K).
T1 construct: expressed in transfected cells; host or cells: HEK293
As to the kind of experiment: Live cell AKT1 E17K target engagement by NanoBRET competitive probe displacement in HEK293 cells. Format: binding. The settings on record: 2 h at 37° C. The protocol: Determining live cell AKT1 E17K, AKT1 WT, and AKT2 target engagement by NanoBRET competitive probe displacement. Live cell target engagement assays were performed as described (Vasta, J. D. et al. Cell Chem Biol 2018, 25(11), 206-214). Briefly, HEK293 cells were transfected with plasmids encoding kinase-NanoLuciferase fusion proteins overnight. Cells were then treated with serial dilutions of compound and an ˜EC50 concentration of fluorescently-tagged ATP-competitive tracer (Promega). After incubation for 2 h at 37° C., luciferase substrate and extracellular luciferase inhibitor were added to all wells, and luminescent intensity at 460 nm and 600 nm were measured on a multimode plate-reader. The ratio of E600/E460 was calculated to give the tracer engagement signal (BRET). IC50 values were calculated by fitting BRET values to a log(inhibitor) vs. response Hill equation.
For orientation: In BRET a luciferase serves as donor, and the signal depends on an acceptor being close.

The test system of assay [1] is LAPC4 prostate cancer cells, which express the AKT1 E17K allele. As to the kind of experiment: Antiproliferative effects in LAPC4 cells (CellTiter Glo, 72 h). The settings on record: read-out: LAPC4 proliferation IC50. Format: cell-based. The protocol:
Antiproliferative Effects in LAPC4 Cells.
LAPC4 prostate cancer cells (Klein, K. A. et al. Nat Med 1997, 3, 402-408), which express the AKT1 E17K allele, were grown in IMDM media (Hyclone) supplemented with 12% FBS+1% P/S. To assess compound effects on growth, 1,000 cells/well were seeded in 384 well assay plates, incubated with compound dilutions dissolved in DMSO. After 72 h, intracellular ATP content was assessed with CellTiter Glo reagent (Promega) according to the manufacturer's instructions. IC50 values were calculated by fitting luminescence values to a log(inhibitor) vs. response Hill equation.
(Cellular ATP, detected with luciferase, serves as a proxy for viable cell number.)

The target of another assay is T2, AKT1 WT (Homo sapiens, UniProt P31749).
T2 construct: expressed in transfected cells; host or cells: HEK293
T2 sequence (P31749 whole entry): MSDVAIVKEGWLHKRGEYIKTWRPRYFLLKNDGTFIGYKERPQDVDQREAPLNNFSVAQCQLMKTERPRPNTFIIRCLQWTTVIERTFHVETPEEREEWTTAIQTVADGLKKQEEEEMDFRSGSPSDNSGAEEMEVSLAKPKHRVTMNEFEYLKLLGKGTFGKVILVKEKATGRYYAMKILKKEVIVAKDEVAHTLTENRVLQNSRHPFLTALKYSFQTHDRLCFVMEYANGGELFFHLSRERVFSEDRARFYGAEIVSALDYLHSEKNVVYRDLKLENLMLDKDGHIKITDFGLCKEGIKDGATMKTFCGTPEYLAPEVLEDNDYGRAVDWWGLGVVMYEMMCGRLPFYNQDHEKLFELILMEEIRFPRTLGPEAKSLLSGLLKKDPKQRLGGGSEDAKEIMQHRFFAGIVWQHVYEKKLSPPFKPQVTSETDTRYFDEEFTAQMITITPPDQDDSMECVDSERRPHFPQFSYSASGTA
The experiment in a line: Live cell AKT1 WT target engagement by NanoBRET competitive probe displacement in HEK293 cells. Format: binding. The note with it: 2 h at 37° C., read-out: AKT1 WT IC50.

Another assay concerns the target T3, AKT2 (Homo sapiens, UniProt P31751).
T3 construct: expressed in transfected cells; host or cells: HEK293
The experiment in a line: Live cell AKT2 target engagement by NanoBRET competitive probe displacement in HEK293 cells. Format: binding. The settings on record: 2 h at 37° C., read-out: AKT2 IC50.

The mark [2] stands for this setting: NanoBRET live cell target engagement, HEK293 cells.
[3] abbreviates: NanoBRET competitive probe displacement, live HEK293 cells.

Molecules are shown by their SMILES. Read-outs that look alike come from different tables or passages of the source.

T1 sequence (P31749 whole entry E17K): as the sequence (P31749 whole entry) above, with E17K counted along it
T3 sequence (P31751 whole entry): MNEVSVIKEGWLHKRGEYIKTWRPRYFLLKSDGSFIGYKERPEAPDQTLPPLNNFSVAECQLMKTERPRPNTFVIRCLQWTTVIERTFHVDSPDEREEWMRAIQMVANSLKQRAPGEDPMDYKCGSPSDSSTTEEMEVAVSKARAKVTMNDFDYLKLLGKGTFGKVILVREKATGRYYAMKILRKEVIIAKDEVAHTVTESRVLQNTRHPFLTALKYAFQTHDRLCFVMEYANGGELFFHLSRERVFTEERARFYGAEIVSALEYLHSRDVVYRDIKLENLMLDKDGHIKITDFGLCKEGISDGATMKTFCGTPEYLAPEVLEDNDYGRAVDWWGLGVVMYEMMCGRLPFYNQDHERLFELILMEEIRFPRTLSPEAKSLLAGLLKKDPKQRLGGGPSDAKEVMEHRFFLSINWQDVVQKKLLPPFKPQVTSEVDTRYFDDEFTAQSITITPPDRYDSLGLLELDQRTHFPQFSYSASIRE

Take `Nc1ncccc1-c1nc2ccc(-n3cccn3)nc2n1-c1ccc2c(c1)CC[C@@H]2NC(=O)c1cc(O)c(O)cc1F` [Compound 351, N-[(1S)-5-[2-(2-aminopyridin-3-yl)-5-(pyrazol-1-yl)imidazo[4,5-b]pyridin-3-yl]-2,3-dihydro-1H-inden-1-yl]-2-fluoro-4,5-dihydroxybenzamide]: the IC50 amounted to 0.0825 µM on AKT1 E17K (setting [2]); 1.14 µM in assay [1] (Homo sapiens, LAPC4, 72 h); 0.0203 µM on AKT1 WT (setting [2]); 0.497 µM at AKT2 (setting [2]).

For `Nc1ncccc1-c1nc2ccc(-n3cccn3)nc2n1-c1ccc2c(c1)CC[C@@H]2NC1CCN(C(=O)C2(F)CC2)CC1` [Compound 370], the IC50 is 0.81 µM on AKT1 E17K (setting [2]); above 10 µM in assay [1] (Homo sapiens, LAPC4, 72 h); 0.0584 µM on AKT1 WT (setting [2]); 1.72 µM on AKT2 (setting [2]).

Consider `O=C(N[C@H]1CCc2cc(-n3c(-c4ccccc4)nc4ccc(-c5ccn(C6CC6)n5)nc43)ccc21)c1ccc(C(F)F)nc1` [Compound 432], for which the IC50 on AKT1 E17K (setting [3]) stood at 0.145 µM; in assay [1] (Homo sapiens, LAPC4, 72 h) it was 3.5 µM; at AKT1 WT (setting [3]), 0.0146 µM; at AKT2 (setting [3]), 1.45 µM.

Turning to `Nc1ncccc1-c1nc2ccc(-n3cccn3)nc2n1-c1ccc2c(c1)CC[C@@H]2NC1CCN(c2cccnc2)CC1` [Compound 368], the IC50 on AKT1 E17K (setting [2]) was determined as 0.406 µM; in assay [1] (Homo sapiens, LAPC4, 72 h), 6.62 µM; on AKT1 WT (setting [2]) it was 0.0368 µM; at AKT2 (setting [2]), 0.768 µM.

As to `Nc1ncccc1-c1nc2ccc(-n3nccn3)nc2n1-c1ccc2c(c1)CC(F)[C@@H]2NC(=O)c1ccc(C(F)F)nc1` (stereo partly shown) [Compound 350], the IC50 came out at 0.0944 µM at AKT1 E17K (setting [2]), 0.885 µM in assay [1], 0.0115 µM on AKT1 WT (setting [2]) and 0.423 µM on AKT2 (setting [2]).

Consider `Nc1ncccc1-c1nc2ccc(-n3cccn3)nc2n1-c1ccc2c(c1)CC[C@@H]2NC(=O)c1cncc(F)c1` [Compound 32, (S)—N-(5-(2-(2-aminopyridin-3-yl)-5-(1H-pyrazol-1-yl)-3H-imidazo[4,5-b]pyridin-3-yl)-2,3-dihydro-1H-inden-1-yl)-5-fluoronicotinamide], for which the IC50 on AKT1 E17K (setting [2]) came to 0.049 µM; in assay [1] (Homo sapiens, LAPC4, 72 h), 0.914 µM; at AKT1 WT (setting [2]), 0.011 µM; on AKT2 (setting [2]), 0.123 µM.

As for `Nc1ncccc1-c1nc2ccc(-n3cccn3)nc2n1-c1ccc2c(c1)CC[C@@H]2NC(=O)c1ccc(C(F)F)cc1` [Compound 61, (S)—N-(5-(2-(2-aminopyridin-3-yl)-5-(1H-pyrazol-1-yl)-3H-imidazo[4,5-b]pyridin-3-yl)-2,3-dihydro-1H-inden-1-yl)-4-(difluoromethyl)benzamide], the IC50 stood at 0.0726 µM at AKT1 E17K (setting [2]); 0.921 µM in assay [1] (Homo sapiens, LAPC4, 72 h); 0.00475 µM on AKT1 WT (setting [2]); 0.0497 µM at AKT2 (setting [2]).

With `COc1ccc(C(=O)N[C@H]2CCc3cc(-n4c(-c5cccnc5N)nc5ccc(-n6nccn6)nc54)ccc32)cn1` [Compound 371], the IC50 on AKT1 E17K (setting [2]) was found to be 0.0478 µM; in assay [1] (Homo sapiens, LAPC4, 72 h) it was 1.05 µM; at AKT1 WT (setting [2]), 0.0154 µM; on AKT2 (setting [2]), 1.28 µM.

Consider `Nc1ncccc1-c1nc2ccc(-n3cccn3)nc2n1-c1ccc2c(c1)CC[C@@H]2NC(=O)c1ccc2[nH]cnc2c1` [Compound 22, (S)—N-(5-(2-(2-aminopyridin-3-yl)-5-(1H-pyrazol-1-yl)-3H-imidazo[4,5-b]pyridin-3-yl)-2,3-dihydro-1H-inden-1-yl)-1H-benzo[d]imidazole-5-carboxamide], for which the IC50 at AKT1 E17K (setting [2]) was 0.0319 µM; in assay [1] (Homo sapiens, LAPC4, 72 h), 1.26 µM; on AKT1 WT (setting [2]), 0.0112 µM; on AKT2 (setting [2]), 0.0676 µM.

With `Nc1ncccc1-c1nc2ccc(-n3cccn3)nc2n1-c1ccc2c(c1)CC[C@@H]2NC(=O)c1cnccn1` [Compound 19, (S)—N-(5-(2-(2-aminopyridin-3-yl)-5-(1H-pyrazol-1-yl)-3H-imidazo[4,5-b]pyridin-3-yl)-2,3-dihydro-1H-inden-1-yl)pyrazine-2-carboxamide], the IC50 amounted to 0.167 µM on AKT1 E17K (setting [2]); 8.03 µM in assay [1] (Homo sapiens, LAPC4, 72 h); 0.0435 µM at AKT1 WT (setting [2]); 2.12 µM at AKT2 (setting [2]).

As to `COc1cc(C(=O)N[C@H]2CCc3cc(-n4c(-c5cccnc5N)nc5ccc(-n6cccn6)nc54)ccc32)cc(OC)n1` [Compound 283], the IC50 on AKT1 E17K (setting [2]) is 0.0106 µM; in assay [1] (Homo sapiens, LAPC4, 72 h), 0.264 µM; at AKT1 WT (setting [2]) it was 0.00275 µM; at AKT2 (setting [2]), 0.00291 µM.

Take `Nc1ncccc1-c1nc2ccc(-n3cccn3)nc2n1-c1ccc2c(c1)CC[C@@H]2NC(=O)c1ccc(F)c(F)c1` [Compound 262]: the IC50 turned out to be 0.0681 µM on AKT1 E17K (setting [2]); 2.34 µM in assay [1] (Homo sapiens, LAPC4, 72 h); 0.00814 µM at AKT1 WT (setting [2]); 0.211 µM at AKT2 (setting [2]).

Regarding `COc1ncc(C(=O)N[C@H]2CCc3cc(-n4c(-c5cccnc5N)nc5ccc(-n6cccn6)nc54)ccc32)cn1` [Compound 23, (S)—N-(5-(2-(2-aminopyridin-3-yl)-5-(1H-pyrazol-1-yl)-3H-imidazo[4,5-b]pyridin-3-yl)-2,3-dihydro-1H-inden-1-yl)-2-methoxypyrimidine-5-carboxamide], the IC50 on AKT1 E17K (setting [2]) is 0.39 µM; in assay [1] (Homo sapiens, LAPC4, 72 h), 1.2 µM; on AKT1 WT (setting [2]) it was 0.00461 µM; at AKT2 (setting [2]), 0.0466 µM.

As to `Nc1ncccc1-c1nc2ccc(-n3cccn3)nc2n1-c1ccc2c(c1)CC[C@@H]2NC1CCN(C(=O)c2cccnc2)CC1` [Compound 359], the IC50 was above 1 µM at AKT1 E17K (setting [2]); above 10 µM in assay [1] (Homo sapiens, LAPC4, 72 h); 0.231 µM at AKT1 WT (setting [2]); above 10 µM on AKT2 (setting [2]).

Take `Nc1ncccc1-c1nc2ccc(-n3cccn3)nc2n1-c1ccc2c(c1)CC[C@@H]2N` [Example 2, (S)-3-(3-(1-amino-2,3-dihydro-1H-inden-5-yl)-5-(1H-pyrazol-1-yl)-3H-imidazo[4,5-b]pyridin-2-yl)pyridin-2-amine]: the IC50 is above 1 µM at AKT1 E17K (setting [2]); 8.98 µM in assay [1] (Homo sapiens, LAPC4, 72 h); 0.0619 µM at AKT1 WT (setting [2]); 0.858 µM at AKT2 (setting [2]).

As to `CN1CCC(N[C@H]2CCc3cc(-n4c(-c5cccnc5N)nc5ccc(-n6cccn6)nc54)ccc32)CC1` [Compound 274], the IC50 at AKT1 E17K (setting [2]) is above 1 µM; in assay [1] (Homo sapiens, LAPC4, 72 h), above 10 µM; on AKT1 WT (setting [2]), 0.593 µM; on AKT2 (setting [2]) it was 5 µM.

For the compound `C#Cc1ccc(C(=O)N[C@H]2CCc3cc(-n4c(-c5cccnc5N)nc5ccc(-n6cccn6)nc54)ccc32)cn1` [Compound 55, (S)—N-(5-(2-(2-aminopyridin-3-yl)-5-(1H-pyrazol-1-yl)-3H-imidazo[4,5-b]pyridin-3-yl)-2,3-dihydro-1H-inden-1-yl)-6-ethynylnicotinamide], the IC50 stood at 0.107 µM at AKT1 E17K (setting [2]); 1.51 µM in assay [1] (Homo sapiens, LAPC4, 72 h); 0.0162 µM on AKT1 WT (setting [2]); 0.0492 µM at AKT2 (setting [2]).

Take `Nc1ncccc1-c1nc2ccc(-n3cccn3)nc2n1-c1ccc2c(c1)CC[C@@H]2NC(=O)c1ccnc2sccc12` [Compound 363]: the IC50 is 0.0579 µM on AKT1 E17K (setting [2]); 1.42 µM in assay [1] (Homo sapiens, LAPC4, 72 h); 0.00774 µM at AKT1 WT (setting [2]); 0.0672 µM on AKT2 (setting [2]).

Take `Nc1ncccc1-c1nc2ccc(-n3cccn3)nc2n1-c1ccc2c(c1)CC[C@@H]2NC(=O)c1ccnc2c1CCO2` [Compound 225]: the IC50 was found to be 0.408 µM at AKT1 E17K (setting [2]); 8.43 µM in assay [1] (Homo sapiens, LAPC4, 72 h); 0.0113 µM on AKT1 WT (setting [2]); 0.343 µM at AKT2 (setting [2]).

As for `Cc1cc(C(=O)N[C@H]2CCc3cc(-n4c(-c5cccnc5N)nc5ccc(-n6cccn6)nc54)ccc32)cnc1C(F)F` [Compound 60, (S)—N-(5-(2-(2-aminopyridin-3-yl)-5-(1H-pyrazol-1-yl)-3H-imidazo[4,5-b]pyridin-3-yl)-2,3-dihydro-1H-inden-1-yl)-6-(difluoromethyl)-5-methylnicotinamide], the IC50 came out at 0.0621 µM at AKT1 E17K (setting [2]); 0.741 µM in assay [1] (Homo sapiens, LAPC4, 72 h); 0.0025 µM on AKT1 WT (setting [2]); 0.0315 µM at AKT2 (setting [2]).

For `Nc1ncccc1-c1nc2ccc(-n3cccn3)nc2n1-c1ccc2c(c1)CC[C@@H]2NC(=O)c1cnns1` [Compound 399], the IC50 at AKT1 E17K (setting [3]) turned out to be 0.177 µM; in assay [1] (Homo sapiens, LAPC4, 72 h) it was 2.73 µM; on AKT1 WT (setting [3]), 0.015 µM; on AKT2 (setting [3]), 0.656 µM.

In the case of `Cc1ccc(C(=O)N[C@H]2CCc3cc(-n4c(-c5cccnc5N)nc5ccc(-n6nccn6)nc54)ccc32)cn1` [Compound 67], the IC50 at AKT1 E17K (setting [2]) was 0.229 µM; in assay [1] (Homo sapiens, LAPC4, 72 h) it was 1.14 µM; on AKT1 WT (setting [2]), 0.015 µM; at AKT2 (setting [2]), 0.636 µM.

(Values after patent publication US12624034B2, “Non-covalent modifiers of AKT1 and uses thereof” (Terremoto Biosciences, Inc., priority 2023, dated 2026).)
